Numbered stars: 1 amine (or outer) side, 2 acyl side, 3 side chain; on linkers, the order of the positions; unused ones are H or OH. Bridge positions count the residues as written; N and C are the ends. Square brackets hold non-standard residues; d marks the D form. Peptide text beside a SMILES is read from it. hPhe = N[C@@H](CCc1ccccc1)C(=O)O; NMeN = CN[C@@H](CC(N)=O)C(=O)O; CO = O=C([*:1])[*:2]
What was measured:
trypsin = assay: Trypsin inhibition assay; type: biochemical; settings: class symbol in IC50 column
Method: The tests were performed in triplicates.
Table S2. Conditions and solvents used in the enzyme inhibition assays.
Enzyme Substrate Inhibitor bation time (min) ngth
Carboxypeptidase-A N-(4-methoxy-phenyl- Carboxypeptidase
(Sigma-Aldrich; azoformyl)-Phe-OH inhibitor from 5 min;
1.6 µM Montclair, CA, USA) (Sigma-Aldrich)
Elastase N-succinyl-Ala-Ala-Ala-p- Elastatinal
(Sigma-Aldrich) nitroanilide (Sigma-Aldrich) 20 min;
Thrombin N-p-tosyl-Gly-Pro-Lys-p- AEBSF
(Sigma-Aldrich) nitroanilide acetate salt (Sigma-Aldrich) 10 min;
Trypsin N-α-benzoyl-DL-arginine- Aprotinine
(Sigma-Aldrich) p-nitroanilide (Sigma-Aldrich) 15 min;
Figure S2. MRM chromatograms of anabaenopeptins produced by N. edaphicum CCNP1411.

CPA = test system: CPA; parameters: method as in PMID 11000037, PMID 10340607, PMID 27641470; settings: ref [9],[23],[87]; read-out: IC50 against CPA; cited from earlier work

## CC[C@H](C)[C@@H]1NC(=O)[C@H](NC(=O)N[C@H](C(=O)O)C(C)C)CCCCNC(=O)[C@H](Cc2ccccc2)NC(=O)[C@H](CC(N)=O)NC(=O)[C@H](CCc2ccccc2)NC1=O [AP806Ne, [Lys–Leu*–Hph–Asn–Phe]CO–Val] ({Val-CO}-[dK]I[hPhe]NF; lactam 1-C)
trypsin
  Enzyme Inhibition TRY (activity class): – (not active (inhibition below 10%))

## CC[C@H](C)[C@H](NC(=O)N[C@@H]1CCCCNC(=O)[C@H](Cc2ccccc2)NC(=O)[C@H](CC(N)=O)N(C)C(=O)[C@H](CCc2ccccc2)NC(=O)[C@H]([C@@H](C)CC)NC1=O)C(=O)O [AP SA6, [Lys–Leu*–Hph–MeAsn–Phe]CO–Leu*] ({Ile-CO}-[dK]I[hPhe][NMeN]F; lactam 1-C)
trypsin
  Enzyme Inhibition TRY (activity class): – (not active (inhibition below 10%))

## Tyr+CO[Lys+Ile+Hty+MeHty+Ile] [AP G]
CPA
  IC50: 2 nM
